Results reported in patent publication US6465168B1, “Methods and apparatus for the inactivation of viruses” (priority 1992, dated 2002).
Like-named read-outs stand apart in the source and are kept apart here. Marks after values point to notes of the source that are not given here.

Columns and labels:
[1] = tested on: murine-C retrovirus; test: Critical fluid viral inactivation of murine-C retrovirus in serum, polybrene enhanced titer on NIH3T3 cells; format: cell-based
Description: (§1) In its normal operating mode, valves PV-4 and PV-5 are opened and an aliquot of test solution is aseptically introduced through the 3-way valve PV-4 using a sterile syringe and a presterilized loading tube. The 3-way valve PV-4 is then turned so that the critical fluid recycle line communicates with the soaking chamber, and the vent valve PV-5 is closed. PV-1 is then opened, supplying the solvent to the compressor P-1. The compressor is turned on and immediately thereafter valves PV-2 and PV-3 are opened, introducing the critical fluid solvent into the high pressure circulation loop. When operating pressure is attained, the compressor is turned off and valve PV-3 is closed.
(§2) After system stabilization, the circulation pump P-2 is turned on and its speed adjusted, typically to 75% of maximum speed or 6,750 rpm. P-2 draws both the proteinaceous product from the bottom of the soaking chamber and the critical fluid phase from the top of the same unit. The mixture is then pumped counter-clockwise, mixed by static in-line mixer and returned to the soaking chamber. After mixing for a defined residence time, P-2 is turned off. The decompression valve PV-7 is then fully opened to depressurize the soaking chamber and the high pressure circulation loop. The rate of decompression was approximately 500 psig per second when PV-7 is a ¼″ ball valve. By using a back-pressure regulator instead of a ¼″ ball valve as the decompression valve PV-7, the rate of decompression can be controlled. In some experiments, the rate of decompression was controlled to approximately 2,000 psig per minute.
(§3) In the examples described herein, samples of a recombinant murine C-type retrovirus were prepared as follows. […] Clonal cell lines stably expressing the transfected DNA were derived and maintained as virus-producing stocks. By packaging the RNA produced by the transfected DNA into the defective particles, these cells produce infectious particles that are entirely normal with respect to overall structure, stability, and mode of infection, but containing the plasmid-derived rather that the wild type, genetic material (Mann et al., Ibid).
(§4) Because the LNCX sequences contain the antibiotic resistance gene neo and a suitable promoter, infection of cells with the recombinant retrovirus confers upon the cells resistance to the antibiotic Geneticin (G418). Conferral of Geneticin-resistance onto cells and their progeny was therefore used as the property by which virus titers were determined. Specifically, virus stocks were prepared by culturing the virus-producing cells at high density (50% confluence) in fresh culture medium (Dulebecco's modified Eagle's medium supplemented with 10% iron-supplemented calf serum [Hyclone, Inc., Logan, UT], glutamine [1 mM], penicillin [100 U/ml] and streptomycin [100 μg/ml] for 18 hours at 37 C. in a humidified 5% CO2 atmosphere. Culture medium was harvested and passed through a 0.2 micron filter, divided into aliquots, quick frozen using a dry-ice/ethanol bath and stored at −80° C. Immediately before use, samples were warmed in a 37 C. water bath until just thawed and held on ice. Aliquots of a single virus preparation were used for the examples described below.
(§5) After virus-containing samples were mixed with other materials and treated as described in each of the examples, they were returned to ice, and assayed within 8 hours. Titer tests were performed by seeding 35 mm-style culture dishes with a mouse fibroblast line (NIH3T3 cells) in 3 ml of the culture medium described above at a density of 10,000 cells per well the evening before the assay was to be performed. Virus samples were added to the culture medium over the cells at various dilution from 10^0 (undiluted) to 10^−6.

[2] = tested on: murine C-type retrovirus; format: cell-based; conditions: culture medium; for Titer: control 5,000; for effectiveness in inactivating the retrovirus: supercritical fluid, approximately 3,000 psig and 40° C.
Description: as §1, §2, §3, §4, §5

[3] = runs CFI-28 to CFI-30: 3,000 psig, 41 C., 30 mins, serum
[4] = runs CFI-28 to CFI-30: 3,000 psig, 41 C., 30 mins, serum, polybrene, control 65,000
[5] = runs CFI-33 (Fr-22), CFI-35 (N2): 3,000 psig, 41 C., 60 mins, serum
[6] = runs CFI-33 (Fr-22), CFI-35 (N2): 3,000 psig, 41 C., 60 mins, serum, control 20,000, 5 = detection limit
[7] = run CFI-21: 3,250 psig, 41 C., 30 mins
[8] = run CFI-18: 2,560 psig, 43 C., 30 mins
[9] = run CFI-19: 2,690 psig, 41 C., 5 mins

CCC [C3H8, propane]
- log10 Reduction [1, 3]: 1.4 | Titer [1, 4]: 2,500 cfu/2.3 ml

FC(F)Cl [Fr-22, chlorodifluoromethane]
reduction of viral activity ([1]; after 30 minutes of contacting the serum, approximately 3,000 psig and 40° C.): ~3.2 log orders of magnitude | time to eliminate viral activity, within the detection limits of the assay ([1]; approximately 3,000 psig and 40° C., serum): within five minutes | - log10 Reduction ([1]; run CFI-31: 3,000 psig, 40 C., 5 mins, serum): >3.6 | Titer ([1]; run CFI-31: 3,000 psig, 40 C., 5 mins, serum, control 20,000, 5 = detection limit): <5* cfu/2.0 ml | - log10 Reduction ([1]; run CFI-32: 3,000 psig, 40 C., 15 mins, serum): 3.6 | Titer ([1]; run CFI-32: 3,000 psig, 40 C., 15 mins, serum, control 20,000): 5 cfu/2.0 ml | - log10 Reduction [1, 3]: 3.2 | Titer [1, 4]: 40 cfu/2.3 ml | - log10 Reduction [1, 5]: >3.6 | Titer [1, 6]: <5* cfu/2.0 ml

N#N [N2, nitrogen]
- log10 Reduction [2, 7]: 0.2 | Titer [2, 7]: 3,000 cfu/2.3 ml | effectiveness in inactivating the retrovirus [2]: relatively ineffective | - log10 Reduction [1, 5]: 0.7 | Titer [1, 6]: 3,750 cfu/2.0 ml

[N-]=[N+]=O [N2O, nitrous oxide]
- log10 Reduction [2, 8]: 2.7 | Titer [2, 8]: 10 cfu/2.3 ml | - log10 Reduction [2, 9]: 2.0 | Titer [2, 9]: 50 cfu/2.3 ml | - log10 Reduction ([2]; run CFI-20: 3,180 psig, 41 C., 121 mins): >3.0 | Titer ([2]; run CFI-20: 3,180 psig, 41 C., 121 mins, 5 = detection limit): <5* cfu/2.3 ml | effectiveness in inactivating the retrovirus [2]: very effective | reduction of virus activity ([1]; 3,000 psig and 40° C., residence time 30 minutes, serum (CFI-27)): 1.4 logs | inactivation of the viral population, within the detection limits of the assay ([1]; 5,000 psig and 40° C., residence time 30 minutes, serum (CFI-34)): inactivated the entire viral population | - log10 Reduction ([1]; run CFI-26: 3,000 psig, 60 C., 30 mins, serum): >4.1 | Titer ([1]; run CFI-26: 3,000 psig, 60 C., 30 mins, serum, polybrene, 40 C. control 65,000, 5 = detection limit): <5* cfu/2.3 ml | - log10 Reduction ([1]; run CFI-27: 3,000 psig, 40 C., 30 mins, serum): 1.4 | Titer ([1]; run CFI-27: 3,000 psig, 40 C., 30 mins, serum, polybrene, control 65,000): 3,000 cfu/2.3 ml | - log10 Reduction ([1]; run CFI-34: 5,000 psig, 41 C., 30 mins, serum): >3.6 | Titer ([1]; run CFI-34: 5,000 psig, 41 C., 30 mins, serum, control 20,000, 5 = detection limit): <5* cfu/2.0 ml | reduction of effectiveness by the presence of protein ([1]; serum (CFI-27) compared with culture medium (CFI-18)): one to two orders of magnitude

CCO [ethanol]
impact on the effect of supercritical nitrous oxide ([1]; 2 mole % ethanol cosolvent, approximately 3,000 psig, 40° C., 30 minutes, serum): little or no impact | effect on the titer ([1]; control without critical fluid, 40° C., 2 mole % ethanol in the serum): does not affect the titer
